Measured values: patent US8637511B2, “Aminopyrimidines useful as kinase inhibitors” (Vertex Pharmaceuticals Incorporated, priority 2005, dated 2014)
Values joined by “and” are separate entries in the source; they are usually repeats but may differ in a detail not shown here. Equal entries are not always repeated. Where two headings read alike, the source gives them in different places.

What was measured:
Colo205 cells = assay: Analysis of cell proliferation and viability; assay type: cell-based; conditions: Homo sapiens, COLO 205, Colo205 cells, read-out: IC50 value
Aurora-2 (Aurora A) = target: T1, Aurora-2 (Aurora A) (Homo sapiens, UniProt O14965); assay: Aurora-2 (Aurora A) inhibition assay, coupled enzyme; assay type: biochemical
T1 sequence (O14965 1-403): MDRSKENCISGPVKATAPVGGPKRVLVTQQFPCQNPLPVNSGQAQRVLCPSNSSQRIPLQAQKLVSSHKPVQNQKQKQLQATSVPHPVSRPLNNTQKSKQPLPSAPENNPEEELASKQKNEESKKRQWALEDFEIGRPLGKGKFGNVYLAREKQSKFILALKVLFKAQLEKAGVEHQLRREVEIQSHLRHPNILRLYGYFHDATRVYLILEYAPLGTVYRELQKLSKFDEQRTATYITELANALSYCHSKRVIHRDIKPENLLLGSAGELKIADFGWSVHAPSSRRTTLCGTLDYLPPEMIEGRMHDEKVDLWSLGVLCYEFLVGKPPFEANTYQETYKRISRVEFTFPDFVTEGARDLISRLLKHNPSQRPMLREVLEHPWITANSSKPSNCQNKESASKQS
How it was run: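 These rates came from NADH consumption coupled through pyruvate kinase and lactate dehydrogenase (100 mM Hepes pH 7.5, 10 mM MgCl2, 300 μM NADH). Aurora-2 was present at 40 nM, and the reaction ran at 30 °C after a 10 min preincubation.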

JAK3 = target: T2, JAK3 (Homo sapiens, UniProt P52333); assay: biochemical
T2 sequence (P52333 1-1124): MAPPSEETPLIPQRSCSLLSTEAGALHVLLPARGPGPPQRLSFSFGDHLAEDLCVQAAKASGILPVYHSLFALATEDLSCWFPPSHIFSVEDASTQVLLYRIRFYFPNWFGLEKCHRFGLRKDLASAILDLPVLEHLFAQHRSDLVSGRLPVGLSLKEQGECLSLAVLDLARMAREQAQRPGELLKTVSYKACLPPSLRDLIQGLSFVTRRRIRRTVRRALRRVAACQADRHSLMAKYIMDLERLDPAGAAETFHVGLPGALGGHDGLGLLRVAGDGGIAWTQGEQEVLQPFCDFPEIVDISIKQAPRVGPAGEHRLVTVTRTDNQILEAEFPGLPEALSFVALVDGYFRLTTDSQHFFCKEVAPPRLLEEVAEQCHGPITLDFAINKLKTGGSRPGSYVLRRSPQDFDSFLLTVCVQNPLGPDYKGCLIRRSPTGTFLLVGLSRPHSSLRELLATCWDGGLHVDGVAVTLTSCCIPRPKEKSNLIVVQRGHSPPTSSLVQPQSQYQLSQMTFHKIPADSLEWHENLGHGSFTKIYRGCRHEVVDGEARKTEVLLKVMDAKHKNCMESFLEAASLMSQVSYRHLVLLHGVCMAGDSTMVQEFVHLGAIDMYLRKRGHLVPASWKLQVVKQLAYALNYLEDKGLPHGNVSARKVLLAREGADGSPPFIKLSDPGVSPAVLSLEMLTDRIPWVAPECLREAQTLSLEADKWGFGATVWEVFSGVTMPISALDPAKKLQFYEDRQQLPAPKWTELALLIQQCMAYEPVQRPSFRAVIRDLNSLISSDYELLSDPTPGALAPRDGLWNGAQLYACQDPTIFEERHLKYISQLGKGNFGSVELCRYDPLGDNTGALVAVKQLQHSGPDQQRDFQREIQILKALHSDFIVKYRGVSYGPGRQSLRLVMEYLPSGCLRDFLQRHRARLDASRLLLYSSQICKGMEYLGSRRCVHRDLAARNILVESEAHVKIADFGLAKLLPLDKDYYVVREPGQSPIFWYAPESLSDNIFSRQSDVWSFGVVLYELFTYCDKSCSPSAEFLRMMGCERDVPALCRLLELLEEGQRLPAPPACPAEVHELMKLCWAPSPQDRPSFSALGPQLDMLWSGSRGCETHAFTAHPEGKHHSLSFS

Aurora-1 (Aurora B) = Aurora-1 (Aurora B) (Homo sapiens, UniProt Q96GD4); assay: Aurora-1 (Aurora B) inhibition assay (radiometric); assay type: biochemical; conditions: read-out: Aurora B kinase Ki value
Chain of Aurora-1 (Aurora B) (Q96GD4 whole entry): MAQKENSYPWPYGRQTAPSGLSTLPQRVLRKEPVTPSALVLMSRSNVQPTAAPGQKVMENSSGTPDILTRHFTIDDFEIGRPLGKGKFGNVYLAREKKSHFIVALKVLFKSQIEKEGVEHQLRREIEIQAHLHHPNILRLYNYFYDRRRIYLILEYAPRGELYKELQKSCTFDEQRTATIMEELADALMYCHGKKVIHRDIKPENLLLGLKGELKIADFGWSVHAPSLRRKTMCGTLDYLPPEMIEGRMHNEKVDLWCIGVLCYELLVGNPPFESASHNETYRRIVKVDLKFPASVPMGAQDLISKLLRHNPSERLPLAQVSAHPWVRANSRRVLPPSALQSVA
How it was run: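 Ki values come from non-linear regression of background-corrected initial-rate data. The enzyme was preincubated 10 min at 25° C with compound, then reacted 3 h with 800 μM (final) [γ-^33P]-ATP in HEPES pH 7.5/MgCl2/BSA/glycerol buffer. The reaction was stopped with phosphoric acid and substrate-bound ^33P counted on phosphocellulose.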

[1] = read-out: Aurora A kinase Ki value

Compound	IC50 (Colo205 cells; incubated for 96 hours)	Ki (Aurora-2 (Aurora A); [1])	Ki (JAK3)	Ki (Aurora-1 (Aurora B))	Ki (JAK3; read-out: JAK3 Ki value)	Ki (Aurora-2 (Aurora A))	IC50 (Colo205 cells; incubated for 72 hours)
Cc1cc(Nc2cc(N3CC(F)C3)nc(Sc3ccc(NC(=O)c4ccccc4Cl)cc3)n2)[nH]n1 [Compound 60]	0.05 to 1 µM	0.001 to 0.005 µM	0.01 to 0.5 µM	0.01 to 0.05 µM			
CC1=NN=C(Nc2cc(N3CCC3)nc(Sc3ccc(NC(=O)c4cccc(Cl)c4F)cc3)n2)C1 [Compound 61]	0.05 to 1 µM	≤ 0.001 µM		≤ 0.01 µM	0.01 to 0.5 µM		
Cc1cc(Nc2cc(N3CC(OC(C)(C)C)C3)nc(Sc3ccc(NC(=O)c4ccccc4Cl)cc3)n2)[nH]n1 [Compound 66]	0.05 to 1 µM		0.01 to 0.5 µM	≤ 0.01 µM		≤ 0.001 µM	
CCC(=O)Nc1ccc(Sc2nc(Nc3cc(C)n[nH]3)cc(N3CC(C)(O)C3)n2)cc1 [Compound 71]	≤ 0.05 µM	0.001 to 0.005 µM		0.01 to 0.05 µM	0.01 to 0.5 µM		
CCCNC(=O)Nc1ccc(Sc2nc(Nc3cc(C)[nH]n3)cc(N3CCC3)n2)cc1 [Compound 73]	> 1 µM	0.005 to 0.2 µM		0.05 to 2 µM	0.5 to 2 µM		
Cc1cc(Nc2cc(N3CCC3)nc(Sc3ccc(NC(=O)NCc4ccccc4)cc3)n2)n[nH]1 [Compound 74]	> 1 µM	0.005 to 0.2 µM	0.01 to 0.5 µM	0.05 to 2 µM			
CCC(=O)Nc1ccc(Sc2nc(Nc3cc(C4CC4)n[nH]3)cc(N3CC(C)(O)C3)n2)cc1 [Compound 76]	0.05 to 1 µM	0.001 to 0.005 µM	≤ 0.01 µM	≤ 0.01 µM			
CCC(=O)Nc1ccc(Sc2nc(C#CC(C)(C)N3CCC3)cc(Nc3cc(C)n[nH]3)n2)cc1 [Compound 77]	0.05 to 1 µM	0.001 to 0.005 µM	0.5 to 2 µM	0.05 to 2 µM			
CCC(=O)Nc1ccc(Sc2nc(Nc3cc(C4CC4)n[nH]3)cc(N3CC(N4CCOCC4)C3)n2)cc1 [Compound 78]	≤ 0.05 µM	≤ 0.001 µM		≤ 0.01 µM	≤ 0.01 µM		
CCC(=O)Nc1ccc(Sc2nc(Nc3cc(C)n[nH]3)cc(N3CC(C)(C#N)C3)n2)cc1 [Compound 79]	0.05 to 1 µM	0.001 to 0.005 µM		0.01 to 0.05 µM and < 0.025 µM	0.01 to 0.5 µM		
CCC(=O)Nc1ccc(Sc2nc(Nc3cc(C)n[nH]3)cc(N3CC(C)(NC(C)(C)C)C3)n2)cc1 [Compound 80]	≤ 0.05 µM	0.001 to 0.005 µM	0.01 to 0.5 µM	0.01 to 0.05 µM			
CCC(=O)Nc1ccc(Sc2nc(Nc3cc(C)n[nH]3)cc(N3CC(O)(C(C)(C)C)C3)n2)cc1 [Compound 81]	≤ 0.05 µM	≤ 0.001 µM		≤ 0.01 µM	≤ 0.01 µM		≤ 0.03 µM
CCC(=O)Nc1ccc(Sc2nc(Nc3cc(C)n[nH]3)cc(N3CC(O)(C(F)(F)F)C3)n2)cc1 [Compound 94]	0.05 to 1 µM	0.001 to 0.005 µM		0.01 to 0.05 µM and < 0.025 µM	0.01 to 0.5 µM		
CCC(=O)Nc1ccc(Sc2nc(Nc3cc(C)n[nH]3)cc(N3CC(C)(OC(C)C)C3)n2)cc1 [Compound 95]	≤ 0.05 µM	0.001 to 0.005 µM	0.01 to 0.5 µM	0.01 to 0.05 µM and < 0.025 µM			
CCC(=O)Nc1ccc(Sc2nc(Nc3cc(C)n[nH]3)cc(N3CC(C)(OC(C)(C)C)C3)n2)cc1 [Compound 96]	≤ 0.05 µM	0.001 to 0.005 µM	0.01 to 0.5 µM	0.01 to 0.05 µM and < 0.025 µM			
Cc1cc(Nc2cc(N3CCC3)nc(Sc3ccc(N)cc3)n2)[nH]n1 [Compound 108]	> 1 µM	0.005 to 0.2 µM		0.05 to 2 µM	≤ 0.01 µM		
Cc1cc(Nc2cc(N3CCC3)nc(Sc3ccc(NC(=O)C4CC4(F)F)cc3)n2)[nH]n1 (centres unmarked) [Compound 112]		0.001 to 0.005 µM		0.01 to 0.05 µM and < 0.025 µM	≤ 0.01 µM		> 0.2 µM
Cc1cc(Nc2cc(N3CCC3)nc(Sc3ccc(NC(=O)C(C)(C)C)cc3)n2)[nH]n1 [Compound 114]		0.001 to 0.005 µM	0.5 to 2 µM	0.01 to 0.05 µM			> 0.2 µM
Cc1cc(Nc2cc(N3CC(C)(O)C3)nc(Sc3ccc(NC(=O)c4ccccc4C(F)(F)F)cc3)n2)[nH]n1 [Compound 115]			≤ 0.01 µM	≤ 0.01 µM		≤ 0.001 µM	0.03 to 0.2 µM
